Experimental data taken from ChEMBL document CHEMBL1201862, “PubChem BioAssay data set” (2004).
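Exposure lasted 48 hours, with cells grown in 96-well plates and compounds tested at five concentrations. The concentration for 50% growth inhibition is given as GI50.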 The source made the active and inactive calls. Rule as the data show it: active = GI50 up to about 1.1 µM and inactive = higher.

Key:
Assay in all cases: DTP human tumour cell line panel, 48 h
ACHN = test system: ACHN
BT-549 = test system: BT-549
CAKI-1 = test system: CAKI-1
HCC 2998 = test system: HCC 2998
HCT-116 = test system: HCT-116
HCT-15 = test system: HCT-15
Hs-578T = test system: Hs-578T
K562 = test system: K562
KM12 = test system: KM12
MDA-MB-231 = test system: MDA-MB-231
MOLT-4 = test system: MOLT-4
NCI-H460 = test system: NCI-H460
NCI/ADR-RES = test system: NCI/ADR-RES
OVCAR-3 = test system: OVCAR-3
RXF 393 = test system: RXF 393
SK-MEL-5 = test system: SK-MEL-5
SN12C = test system: SN12C
SW-620 = test system: SW-620
TK-10 = test system: TK-10
UACC-62 = test system: UACC-62

SMILES | GI50 (ACHN) | GI50 (BT-549) | GI50 (CAKI-1) | GI50 (HCC 2998) | GI50 (HCT-116) | GI50 (HCT-15) | GI50 (Hs-578T) | GI50 (K562) | GI50 (KM12) | GI50 (MDA-MB-231) | GI50 (MOLT-4) | GI50 (NCI-H460) | GI50 (NCI/ADR-RES) | GI50 (OVCAR-3) | GI50 (RXF 393) | GI50 (SK-MEL-5) | GI50 (SN12C) | GI50 (SW-620) | GI50 (TK-10) | GI50 (UACC-62)
Cc1nc(-c2ccccc2)cn2c1nc1ccccc12 | 21.7 µM (inactive) | 17.4 µM (inactive) | 21.1 µM (inactive) | 51.4 µM (inactive) | 25.9 µM (inactive) | 16.4 µM | 35.4 µM (inactive) | > 61.7 µM (inactive) | 20.8 µM (inactive) | 29.9 µM (inactive) | 44 µM (inactive) | 17.7 µM (inactive) | 20.9 µM (inactive) | 26.7 µM (inactive) | 19.6 µM (inactive) | 13.9 µM (inactive) | 29.7 µM (inactive) | 27.7 µM (inactive) | 29.3 µM (inactive) | 14.7 µM (inactive)
CCSc1nc(N2CCCC2)s[s+]1.[O-][Cl+3]([O-])([O-])[O-] | 54.3 µM (inactive) | 33 µM (inactive) | 43 µM (inactive) | 73.6 µM (inactive) | 28.4 µM (inactive) | 27.4 µM | 40.6 µM (inactive) | 1 µM (active) | 39.4 µM (inactive) | 44.6 µM (inactive) | 3.29 µM (inactive) | 0.225 µM (active) | > 100 µM (inactive) | 3.58 µM (inactive) | 30.9 µM (inactive) | 0.08 µM (active) | 46.1 µM (inactive) | 34.4 µM (inactive) | 90.8 µM (inactive) | 0.684 µM (active)
CC(NNC(=O)c1ccncc1)c1ccc(F)cc1 (stereo not given) | > 100 µM (inactive) | > 100 µM (inactive) | > 100 µM (inactive) | > 100 µM (inactive) | > 100 µM (inactive) | > 100 µM | > 100 µM (inactive) | > 100 µM (inactive) | > 100 µM (inactive) | > 100 µM (inactive) | 6.65 µM (inactive) | > 100 µM (inactive) | > 100 µM (inactive) | > 100 µM (inactive) | > 100 µM (inactive) | > 100 µM (inactive) | > 100 µM (inactive) | > 100 µM (inactive) | > 100 µM (inactive) | > 100 µM (inactive)
CN(C)c1ccc(/C=C2\N=C(c3ccccc3)N(/N=C3\C(=O)Nc4ccccc43)C2=O)cc1 | 65.9 µM (inactive) | > 100 µM (inactive) | 35.9 µM (inactive) | 52.4 µM (inactive) | 57.3 µM (inactive) | 61.5 µM | 38.8 µM (inactive) | 32 µM (inactive) | 50.9 µM (inactive) | 92.5 µM (inactive) | 32 µM (inactive) | 50.5 µM (inactive) | 83.8 µM (inactive) | 16.8 µM (inactive) | 45.1 µM (inactive) | 47.8 µM (inactive) | 56.9 µM (inactive) | 65 µM (inactive) | 53.2 µM (inactive) | > 100 µM (inactive)
Cc1ccc(S(=O)(=O)ON2C(=O)c3c(N)c(C#N)c(-c4ccccc4)c(-c4ccccc4)c3C2=O)cc1 | 16.4 µM (inactive) | 13.1 µM (inactive) | 16 µM (inactive) | 31.2 µM (inactive) | 14.6 µM (inactive) | 17.2 µM | 71.3 µM (inactive) | 6.41 µM (inactive) | 51.1 µM (inactive) | 19.3 µM (inactive) | 10.2 µM (inactive) | 35.6 µM (inactive) | 23.4 µM (inactive) | 13.6 µM (inactive) | 10.4 µM (inactive) | 17.1 µM (inactive) | 18.1 µM (inactive) | 14.6 µM (inactive) | 17.3 µM (inactive) | 17.1 µM (inactive)
Cc1ccc(-c2cn3c(nc4ccccc43)c(C)n2)cc1 | 30.3 µM (inactive) | 25.9 µM (inactive) | > 100 µM (inactive) | > 100 µM (inactive) | 32 µM (inactive) | 25.2 µM | 51.3 µM (inactive) | 43.5 µM (inactive) | > 100 µM (inactive) | > 94.6 µM (inactive) | 43.7 µM (inactive) | 26.7 µM (inactive) | 40.1 µM (inactive) | 48 µM (inactive) | 21.8 µM (inactive) | 10.7 µM (inactive) | 55.6 µM (inactive) | > 100 µM (inactive) | 43.9 µM (inactive) | 23.5 µM (inactive)
C/C(=N\O)c1cccc[n+]1Cc1ccccc1 | > 100 µM (inactive) | > 100 µM (inactive) | > 100 µM (inactive) | > 100 µM (inactive) | > 100 µM (inactive) | > 100 µM | > 100 µM (inactive) | > 100 µM (inactive) | > 100 µM (inactive) | > 100 µM (inactive) | > 100 µM (inactive) | > 100 µM (inactive) | > 100 µM (inactive) | > 100 µM (inactive) | > 100 µM (inactive) | > 100 µM (inactive) | > 100 µM (inactive) | > 100 µM (inactive) | > 100 µM (inactive) | > 100 µM (inactive)
N#Cc1ccc(-n2c3ccccc3c3ccc4c(c32)C(=O)C=CC4=O)cc1 | 1.56 µM (inactive) | 12.2 µM (inactive) | 1.38 µM (inactive) | 8.43 µM (inactive) | 2.42 µM (inactive) | 4.49 µM | 4.16 µM (inactive) | 1.29 µM (inactive) | 10.2 µM (inactive) | 2.51 µM (inactive) | 0.348 µM (active) | 21.6 µM (inactive) | 10.9 µM (inactive) | 3.27 µM (inactive) | 2.39 µM (inactive) | 5.02 µM (inactive) | 3.65 µM (inactive) | 1.92 µM (inactive) | 3.4 µM (inactive) | 6.25 µM (inactive)
O=C(Cn1nc(Br)c(Br)c1Br)c1ccccc1 | 27.3 µM (inactive) | 20.2 µM (inactive) | 26.7 µM (inactive) | 36.6 µM (inactive) | 18.1 µM (inactive) | 31.6 µM | 44.1 µM (inactive) | 10.8 µM (inactive) | 33.4 µM (inactive) | 18.9 µM (inactive) | 0.238 µM (active) | 23.8 µM (inactive) | 30.1 µM (inactive) | 34.1 µM (inactive) | 13.6 µM (inactive) | 18.1 µM (inactive) | 65.6 µM (inactive) | 34 µM (inactive) | 13.7 µM (inactive) | 20 µM (inactive)
C(=C\N1CCCCC1)/c1nnnn1-c1ccccc1 | 37.9 µM (inactive) | 33 µM (inactive) | 12.4 µM (inactive) | 90.6 µM (inactive) | 25.4 µM (inactive) | 23.6 µM | 17 µM (inactive) | 30.7 µM (inactive) | 56.8 µM (inactive) | 20.8 µM (inactive) | 17.4 µM (inactive) | 73.8 µM (inactive) | 20.5 µM (inactive) | 30.5 µM (inactive) | 13.9 µM (inactive) | 23.3 µM (inactive) | 26.2 µM (inactive) | 34.8 µM (inactive) | 43.1 µM (inactive) | 15.6 µM (inactive)
COc1cc(/C=C2\C[C@H]3[C@@H]4CCC5=CC(=O)CC[C@]5(C)[C@H]4CC[C@]3(C)C2=O)cc(OC)c1OC | 9.16 µM (inactive) | 3.29 µM (inactive) | 5.37 µM (inactive) | 15 µM (inactive) | 3.85 µM (inactive) | 4.82 µM | 17.8 µM (inactive) | 3.82 µM (inactive) | 3.58 µM (inactive) | 7.74 µM (inactive) | 2.13 µM (inactive) | 6.35 µM (inactive) | 3.86 µM (inactive) | 4.49 µM (inactive) | 10.1 µM (inactive) | 3.07 µM (inactive) | 6.4 µM (inactive) | 8.61 µM (inactive) | 19.8 µM (inactive) | 4.35 µM (inactive)
CN(C)CCCn1c(Cc2ccc(Cl)cc2)nc2cc(C(F)(F)F)ccc21 | 13.2 µM (inactive) | 17 µM (inactive) | 13.3 µM (inactive) | 2 µM (inactive) | 12.5 µM (inactive) | 17.1 µM | 16.6 µM (inactive) | 6.41 µM (inactive) | 14.3 µM (inactive) | 13.6 µM (inactive) | 11.2 µM (inactive) | 13.2 µM (inactive) | 15.7 µM (inactive) | 14.5 µM (inactive) | 9.06 µM (inactive) | 15.8 µM (inactive) | 15.1 µM (inactive) | 23.4 µM (inactive) | 15.3 µM (inactive) | 17.3 µM (inactive)
COc1ccc(/C=C/c2sc3ccccc3[n+]2CCCCI)cc1OC | > 10 µM (inactive) | > 10 µM (inactive) | > 10 µM (inactive) | > 10 µM (inactive) | 4.36 µM (inactive) | > 10 µM | > 10 µM (inactive) | 3.25 µM (inactive) | 6.25 µM (inactive) | > 10 µM (inactive) | 5.87 µM (inactive) | > 10 µM (inactive) | > 10 µM (inactive) | 5.47 µM (inactive) | > 10 µM (inactive) | 5.55 µM (inactive) | > 10 µM (inactive) | 7.01 µM (inactive) | > 10 µM (inactive) | 6.32 µM (inactive)
CCOC(=O)/C=C(\C(=O)OCC)n1cnc2c(N)ncnc21 | 6.67 µM (inactive) | 12.1 µM (inactive) | 1.4 µM (inactive) | 16 µM (inactive) | 3.11 µM (inactive) | 3.08 µM | 19.7 µM (inactive) | 1.99 µM (inactive) | 14.8 µM (inactive) | 7.31 µM (inactive) | 2.44 µM (inactive) | 17.9 µM (inactive) | 17.2 µM (inactive) | 8.41 µM (inactive) | 12.6 µM (inactive) | 14.7 µM (inactive) | 5.19 µM (inactive) | 2.74 µM (inactive) | 5.02 µM (inactive) | 10.7 µM (inactive)
